From patent US11510852B2 (THE ROYAL INSTITUTION FOR THE ADVANCEMENT OF …, priority 2019, dated 2022)

Key:
[1] = UV visible spectroscopy of supernatant after addition of composite resin powder; type: binding; settings: 306 nm methyl salicylate, 272 nm thymol
Method: (§1) To analyze how the different tested molecules (methyl salicylate, thymol and spearmint oil) interact with composite and the tooth structure UV Visible spectroscopy was used. Dilute solutions of the three tested molecules were prepared. […] The resulting solutions were analyzed in triplicates using UV visible spectrophotometer (Evolution 200 series, Thermo Scientific, Madison, USA) and the resulting absorbance peaks were plotted as control (FIG. 1). After this, equal weights of composite resin and hydroxy-apatite powders were added to equal volumes of the diluted solutions of the three tested molecules.
(§2) The characterization of the interaction between the staining components and both composite resin and the tooth structure was performed using UV visible spectroscopy which was chosen to characterize indirectly the insoluble powder; a method that is largely used in pharmaceutical industry. In this method, different weights of insoluble polymer are added to a known concentration of a solute with a clear fingerprint in UV-vis spectrum. After each addition, the filtered solutions are then analyzed using UV-vis spectrophotometer and the resultant effect on the UV spectrum is compared to the baseline readings.

[2] = UV visible spectroscopy of supernatant after addition of hydroxy-apatite powder; type: binding; settings: 306 nm MeSa, 272 nm thymol
Method: as §1, §2

SMILES: COC(=O)c1ccccc1O [methyl salicylate]
- decrease of main absorbance peak ([1]; 0.3 g composite resin): 37±3.9%
- decrease of main absorbance peak ([1]; 0.5 g composite resin): 38±25%
- decrease of main absorbance peak ([1]; 0.8 g composite resin): 85±12%
- change of main absorbance peak ([2]; 0.3 g hydroxy-apatite): 13±22%
- change of main absorbance peak ([2]; 0.5 g hydroxy-apatite): 11±14%
- change of main absorbance peak ([2]; 0.8 g hydroxy-apatite): 1.1±15%

SMILES: Cc1ccc(C(C)C)c(O)c1 [thymol]
- decrease of main absorbance peak ([1]; 0.3 g composite resin): 47±17%
- decrease of main absorbance peak ([1]; 0.5 g composite resin): 55±1.2%
- decrease of main absorbance peak ([1]; 0.8 g composite resin): 66±2.9%
- change of main absorbance peak ([2]; 0.3 g hydroxy-apatite): 14±3.3%
- change of main absorbance peak ([2]; 0.5 g hydroxy-apatite): 10±9.2%
- change of main absorbance peak ([2]; 0.8 g hydroxy-apatite): 7±1.6%
